Test results published in patent US12703693B2, “Crystalline forms of N-{3-[(1S)-1-{[6-(3,4-dimethoxyphenyl)pyrazin-2-yl]amino}ethyl]phenyl}-5-methylpyridine-3-carboxamide and related products and methods” (GB002, INC., priority 2021, dated 2026).
In brackets after ≈: the same amount, converted by molar mass. Marks after values point to notes of the source that are not given here. One block for each compound: values may come before it.

Key:
[1] = Solubility in ethanol/water mixtures; conditions: for solubility / solubility at 4 h / solubility at 24 h: 22 °C, aqueous with cosolvent or surfactant or cyclodextrin, thermodynamic from solid
Procedure: (§1) Phosphate Buffer contained NaH2PO4·H2O (0.345 g), sodium hydroxide aqueous solution (0.2M, 10.001 mL), sodium chloride (0.576 g) and water (qs ad 100.0 mL); • Ethanol/Water (30/70) contained Ethanol (30.0 g) and Water (70.0 g); • Ethanol/Water (40/60) contained Ethanol (40.0 g) and Water (60.0 g); • Ethanol/Water (50/50) contained Ethanol (50.0 g) and Water (50.0 g); and • Ethanol/Water (45/55) contained Ethanol (4.50 g) and Water (5.51 g).

[2] = Solubility in 25 mM phosphate buffer pH 7.4
Procedure: as §1

[3] = Sample stress, 40° C. and 75% relative humidity, XRPD; format: physicochemical; conditions: open vial, 6 days
Procedure: Two samples, one containing pure crystalline Form A of Compound 1 and a second containing a mixture of crystalline Forms A and B of Compound 1 were placed in an open vial at 40° C. and 75% relative humidity for 6 days and then analyzed by XRPD. The results are presented in Table 11; no changes by XRPD were observed.

[4] = Solubility in ethyl acetate and ethyl acetate+2% water (Crystal16 parallel crystallizer); format: physicochemical
Procedure: The solubility of crystalline Forms A and B of Compound 1 in ethyl acetate was determined using a Crystal16® parallel crystallizer. Two heating rates were used, 1° C./min and 0.5° C./min. The suspensions were heated to 78° C. and cooled to 10° C. at 0.2° C./min and maintained for 2 h at 10° C. […] The suspensions were heated to 78° C. at 1° C./min, cooled to 10° C. at 0.2° C./min and maintained for 2 h at 10° C. FIG. 15 compares the resulting solubility curve with the pure ethyl acetate.

[5] = Particle size distribution (PSD) of micronized / spray dried material; format: physicochemical; conditions: wet milled aqueous suspension of Compound 1 Form A; cycles/pressure: 1A 30/60 bar, 2A 45/50 bar, 3A 30/50 bar
From the text: Crystalline Compound 1 Form A was fed into a grinding chamber tangentially by vacuum created by the venturi system using pressurized nitrogen (venturi pressure, Pvent, above grind pressure, Pgrind). Compressed nitrogen was also used for the jet nozzles in the walls of the chamber. The feed flow rate was set and controlled automatically (by a gravimetric feeder) or manually. Once inside the milling chamber particles were accelerated by a series of perimeter jets, in a spiral movement. The compressed fluid issuing from the nozzles expands from Pgrind and imparts very high rotational speeds in the chamber. The micronizing effect occurs when the slower incoming particles and the faster particles in the spiral path collide. While centrifugal force retains the larger particles at the periphery of the milling chamber, the smaller particles exit with the exhaust gas from the center of the chamber. Five 20 g trials were performed in a 1.5″ jet mill, under varying feed rates (Ffeed,JM,) and pressures; the optimal conditions were used for a sixth larger scale 50 g trial.
Aqueous suspensions of crystalline Compound 1 Form A in water (5% w/w or 10% w/w) were processed via microfluidization with a HPH18 (M-110EH-30 Microfluidics Pilot) wet milling apparatus equipped with an auxiliary processing module (200 μm) and an interaction chamber (Z-shape, 100 μm). The unit was initiated at a given pressure for the first five cycles to perform a pre-milling of the suspension, using only the auxiliary processing module (200 μm). The interaction chamber (100 μm) was then introduced and the suspension processed at a defined pressure. The temperature was controlled, using a reactor jacket, and recorded. To address clogging of the micronization chambers (observed after ~25 cycles), the pressure was increased from 25 to 60 bar.
The material isolated from the first run 1A, was dived into three (1BI, 1BII and 1BIII); runs 2A and 3A were spray dried to produce samples 2B and 3B, respectively. […] Runs 2B and 3B were additionally characterized for specific surface area (SSA). See Table 27 (runs 1BI, 1BII and 1BIII) and Table 28 (runs 2B and 3B) for conditions and product characterization. […]
Two 250 g batches of crystalline Compound 1 Form A were each suspended in water (5 L) and wet polished in a wet milling HPH18 (M-110EH-30 Microfluidics Pilot) apparatus, equipped with an auxiliary processing module (200 μm) and an interaction chamber (Z-shape, 100 μm). The unit was initiated at 50 bar for the first five cycles to perform a pre-milling of the suspension, using only the auxiliary processing module (200 μm). The interaction chamber (100 μm) was then introduced and the suspension processed at 50 bar (increased to 60 or 70 bar if the system clogged). The temperature was maintained at 18-28° C. using a reactor jacket. The Reactor agitation speed was 280 RPM (batch 1) and 390 RPM (batch 2). The first batch was micronized for 25 cycles and particle size distribution analyzed after 5, 15 and 20 cycles; the second batch was micronized for […] and particle size distribution analyzed after 15, 20, 25 and 35 cycles.
Both batches were then spray dried (separately) using a Büchi spray dryer, using an open loop system. The unit was equipped with a two-fluid nozzle: cap and orifice diameters of 1.5 and 0.7 mm, respectively operated with nitrogen. The aspirator, blowing nitrogen, was set at 100% capacity (~40 kg/h). The suspension feed flow was set to 8 ml/min, high and the drying outlet temperature to 75±1° C. […] Total yield (both batches combined) was 267 g (53%).
Two 250 g batches (250 g and 238 g; 488 g total) of crystalline Compound 1 Form A coated with ~2% L-leucine were each suspended in water (5 L) and wet polished in a wet milling HPH18 (M-110EH-30 Microfluidics Pilot) apparatus, under the same process as described in the previous example. The first batch was micronized for 25 cycles and the second for 30 cycles. […]

[6] = EtOH/H2O (w:w) 50:50, top layer after centrifugation, 22° C.

SMILES: COc1ccc(-c2cncc(N[C@@H](C)c3cccc(NC(=O)c4cncc(C)c4)c3)n2)cc1OC [Crystalline]
Solubility 4 Hours ([1]; EtOH/H2O (w:w) 40:60, 22° C.): 18900 µg/mL (≈ 40.3 mM)
Solubility 24 Hours ([1]; EtOH/H2O (w:w) 40:60, 22° C.): 18.3 mg/mL (≈ 39 mM)
Solubility Average ([1]; EtOH/H2O (w:w) 40:60, 22° C.): 18600 µg/mL (≈ 39.6 mM)
Solubility 4 Hours ([1]; EtOH/H2O (w:w) 45:55, 22° C.): 53300 µg/mL (≈ 114 mM)
Solubility 24 Hours ([1]; EtOH/H2O (w:w) 45:55, 22° C.): 43.3 mg/mL (≈ 92.2 mM)
Solubility Average ([1]; EtOH/H2O (w:w) 45:55, 22° C.): 48300 µg/mL (≈ 103 mM)
Solubility 4 Hours ([1]; EtOH/H2O (w:w) 50:50, bottom layer after centrifugation, 22° C.): 222000 µg/mL (≈ 473 mM)
Solubility 24 Hours ([1]; EtOH/H2O (w:w) 50:50, bottom layer after centrifugation, 22° C., result outside calibration curve): 362* mg/mL
Solubility 4 Hours [1, 6]: 125000 µg/mL (≈ 266 mM)
Solubility 24 Hours [1, 6]: 177 mg/mL (≈ 377 mM)
solubility ([2]; 25 mM phosphate buffer pH 7.4, equil time 4 hrs): 3.16 µg/mL (≈ 0.00673 mM)
solubility ([2]; 25 mM phosphate buffer pH 7.4, equil time 24 hrs): 3.05 µg/mL (≈ 0.0065 mM)

SMILES: COc1ccc(-c2cncc(N[C@@H](C)c3cccc(NC(=O)c4cncc(C)c4)c3)n2)cc1OC [Form A + form B (minor)]
XRPD observation after stress conditions [3]: No change - Form A +

SMILES: CC(C)C[C@H](N)C(=O)O [L-Leucine]
solubility ([1]; ethanol/water 30:70 (w:w)): 7360 µg/mL (≈ 56.1 mM)
solubility at 4 h ([1]; ethanol/water 30:70 (w:w)): 7470 µg/mL (≈ 56.9 mM)
solubility at 24 h ([1]; ethanol/water 30:70 (w:w)): 7260 µg/mL (≈ 55.3 mM)
solubility ([1]; ethanol/water 40:60 (w:w)): 5880 µg/mL (≈ 44.8 mM)
solubility at 4 h ([1]; ethanol/water 40:60 (w:w)): 6040 µg/mL (≈ 46 mM)
solubility at 24 h ([1]; ethanol/water 40:60 (w:w)): 5710 µg/mL (≈ 43.5 mM)
solubility ([1]; ethanol/water 50:50 (w:w)): 5070 µg/mL (≈ 38.7 mM)
solubility at 4 h ([1]; ethanol/water 50:50 (w:w)): 4720 µg/mL (≈ 36 mM)
solubility at 24 h ([1]; ethanol/water 50:50 (w:w)): 5410 µg/mL (≈ 41.2 mM)

The remaining lines, values ahead:

solubility compared with the other crystalline form ([4]; ethyl acetate and ethyl acetate+2% water (both systems)): slightly less soluble
solubility in ethyl acetate+2% water compared to pure ethyl acetate ([4]; presence of water (2%)): significantly more soluble
SMILES: COc1ccc(-c2cncc(N[C@@H](C)c3cccc(NC(=O)c4cncc(C)c4)c3)n2)cc1OC [Form B, N-{3-[(1S)-1-{[6-(3,4-dimethoxyphenyl)pyrazin-2-yl]amino}ethyl]phenyl}-5-methylpyridine-3-carboxamide]

Dv10 [5]: 1.7 μm
Dv50 [5]: 3.2 μm
Dv90 [5]: 6 μm
SMILES: COc1ccc(-c2cncc(N[C@@H](C)c3cccc(NC(=O)c4cncc(C)c4)c3)n2)cc1OC [Run 1A]

Dv10 [5]: 1.3 μm
Dv50 [5]: 2.7 μm
Dv90 [5]: 4.8 μm
SMILES: COc1ccc(-c2cncc(N[C@@H](C)c3cccc(NC(=O)c4cncc(C)c4)c3)n2)cc1OC [Run 2A]

Dv10 [5]: 0.1 μm
Dv50 [5]: 1.0 μm
Dv90 [5]: 3.5 μm
SMILES: COc1ccc(-c2cncc(N[C@@H](C)c3cccc(NC(=O)c4cncc(C)c4)c3)n2)cc1OC [Run 3A]
